From BindingDB's records for patent US20240352053 (Betta Pharmaceuticals, 2024)

How the values were obtained:
Experiment in all cases: Kinase Inhibition Assay
[1] = molecular target: T1, Epidermal growth factor receptor [1-18,20-1210,T790M,C797S] (Human, UniProt P00533, T790M/C797S)
T1 construct: 1-18,20-1210
Description: (§1) Mobility shift assays were performed to determine the compound's inhibitory activity against EGFR delta19del/T790M/C797S, EGFR WT, and IGF1R kinases. The enzyme reaction scheme is as follows: 1. Prepare 1*kinase buffer as follows. Final 1* Kinase buffer concentration HEPES PH 7.5 (mM) 50 Brij-35 0.0150% DTT (mM) 2 Mgcl2, Mncl2 (mM) 10 2. Preparation of compound concentration gradient: The starting concentration of the test compound is 3000 nM or 100 nM, dilute it in the 384-source plate to a 100% DMSO solution of 100 times the final concentration, and use precision to dilute the compound 3 times to 10 concentrations. Use the Dispenser Echo 550 to transfer 250 nL of 100x the final concentration of compound to the destination plate OptiPlate-384F. 3. Prepare a kinase solution with 2.5 times the final concentration using 1x Kinase buffer. 4. Add 10 uL of 2.5 times the final concentration of kinase solution to the compound wells and positive control wells respectively; add 10 uL of 1x Kinase buffer to the negative control wells. 5. Centrifuge at 1000 rpm for 30 seconds, shake and mix the reaction plate and incubate at room temperature for 10 minutes. 6. Use 1x Kinase buffer to prepare a mixed solution of ATP and Kinase substrate at 5/3 times the final concentration. 7. Add 15 uL of a mixed solution of ATP and substrate at 5/3 times the final concentration to start the reaction. 8. Centrifuge the 384-well plate at 1000 rpm for 30 seconds, mix well by shaking, and incubate at room temperature for the corresponding time. 9. Add 30 uL of stop detection solution to stop the kinase reaction, centrifuge at 1000 rpm for 30 seconds, and shake to mix. 10. Use Caliper EZ Reader to read conversion rates. 11. Calculation formula

[2] = molecular target: Epidermal growth factor receptor (Homo sapiens, UniProt P00533)
Sequence of Epidermal growth factor receptor (P00533 whole entry): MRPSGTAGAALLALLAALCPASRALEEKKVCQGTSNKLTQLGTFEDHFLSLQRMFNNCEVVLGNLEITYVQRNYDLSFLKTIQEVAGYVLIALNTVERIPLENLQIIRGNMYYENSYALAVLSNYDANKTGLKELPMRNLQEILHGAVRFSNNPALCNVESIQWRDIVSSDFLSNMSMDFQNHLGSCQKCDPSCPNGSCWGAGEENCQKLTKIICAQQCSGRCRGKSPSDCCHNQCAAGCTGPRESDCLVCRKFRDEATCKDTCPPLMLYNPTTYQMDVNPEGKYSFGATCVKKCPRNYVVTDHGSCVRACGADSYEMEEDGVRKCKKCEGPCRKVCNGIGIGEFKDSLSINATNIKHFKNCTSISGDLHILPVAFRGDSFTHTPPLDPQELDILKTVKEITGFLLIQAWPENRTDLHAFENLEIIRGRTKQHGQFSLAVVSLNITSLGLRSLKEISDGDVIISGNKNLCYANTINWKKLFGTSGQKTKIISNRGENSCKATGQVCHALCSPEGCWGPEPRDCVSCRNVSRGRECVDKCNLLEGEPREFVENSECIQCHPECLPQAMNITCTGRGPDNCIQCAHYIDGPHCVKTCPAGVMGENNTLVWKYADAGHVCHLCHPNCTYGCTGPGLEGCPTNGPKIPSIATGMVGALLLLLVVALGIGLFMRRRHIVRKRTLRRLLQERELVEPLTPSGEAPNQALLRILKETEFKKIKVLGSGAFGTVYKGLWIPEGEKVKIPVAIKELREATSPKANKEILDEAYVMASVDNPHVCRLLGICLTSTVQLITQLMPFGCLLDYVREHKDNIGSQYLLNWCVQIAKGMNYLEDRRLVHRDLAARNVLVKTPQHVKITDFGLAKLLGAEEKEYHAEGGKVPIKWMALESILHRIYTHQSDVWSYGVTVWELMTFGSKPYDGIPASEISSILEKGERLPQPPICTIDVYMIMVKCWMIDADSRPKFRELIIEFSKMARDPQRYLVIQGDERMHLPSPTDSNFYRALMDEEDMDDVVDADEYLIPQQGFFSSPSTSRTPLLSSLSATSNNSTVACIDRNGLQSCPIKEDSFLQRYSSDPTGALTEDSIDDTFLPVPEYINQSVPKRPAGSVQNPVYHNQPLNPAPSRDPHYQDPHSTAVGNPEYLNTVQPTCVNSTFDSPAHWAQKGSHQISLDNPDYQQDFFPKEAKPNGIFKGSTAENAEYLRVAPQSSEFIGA
Description: as §1

[3] = molecular target: Insulin-like growth factor 1 receptor (Homo sapiens, UniProt P08069)
Sequence of Insulin-like growth factor 1 receptor (P08069 31-736 limits assumed): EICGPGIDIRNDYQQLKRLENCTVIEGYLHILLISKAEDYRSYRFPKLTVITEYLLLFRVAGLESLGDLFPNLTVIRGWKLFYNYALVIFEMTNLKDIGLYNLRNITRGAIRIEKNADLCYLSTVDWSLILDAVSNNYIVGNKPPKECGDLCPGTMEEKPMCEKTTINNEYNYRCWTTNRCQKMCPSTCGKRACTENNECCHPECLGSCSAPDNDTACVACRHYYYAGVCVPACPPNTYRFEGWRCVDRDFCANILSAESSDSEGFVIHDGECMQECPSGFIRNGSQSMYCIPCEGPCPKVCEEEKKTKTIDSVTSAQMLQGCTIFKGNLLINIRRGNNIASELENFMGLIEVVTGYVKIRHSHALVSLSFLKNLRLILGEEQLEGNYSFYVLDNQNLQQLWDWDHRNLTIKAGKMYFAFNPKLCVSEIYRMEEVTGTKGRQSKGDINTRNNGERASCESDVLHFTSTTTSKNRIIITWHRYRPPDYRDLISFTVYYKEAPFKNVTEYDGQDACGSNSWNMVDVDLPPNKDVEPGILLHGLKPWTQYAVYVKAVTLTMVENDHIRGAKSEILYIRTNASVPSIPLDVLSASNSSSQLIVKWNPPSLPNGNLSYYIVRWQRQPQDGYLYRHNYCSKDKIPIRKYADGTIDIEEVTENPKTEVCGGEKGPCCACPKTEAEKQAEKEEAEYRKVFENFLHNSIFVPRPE
Sequence of Insulin-like growth factor 1 receptor (P08069 741-1367 limits assumed): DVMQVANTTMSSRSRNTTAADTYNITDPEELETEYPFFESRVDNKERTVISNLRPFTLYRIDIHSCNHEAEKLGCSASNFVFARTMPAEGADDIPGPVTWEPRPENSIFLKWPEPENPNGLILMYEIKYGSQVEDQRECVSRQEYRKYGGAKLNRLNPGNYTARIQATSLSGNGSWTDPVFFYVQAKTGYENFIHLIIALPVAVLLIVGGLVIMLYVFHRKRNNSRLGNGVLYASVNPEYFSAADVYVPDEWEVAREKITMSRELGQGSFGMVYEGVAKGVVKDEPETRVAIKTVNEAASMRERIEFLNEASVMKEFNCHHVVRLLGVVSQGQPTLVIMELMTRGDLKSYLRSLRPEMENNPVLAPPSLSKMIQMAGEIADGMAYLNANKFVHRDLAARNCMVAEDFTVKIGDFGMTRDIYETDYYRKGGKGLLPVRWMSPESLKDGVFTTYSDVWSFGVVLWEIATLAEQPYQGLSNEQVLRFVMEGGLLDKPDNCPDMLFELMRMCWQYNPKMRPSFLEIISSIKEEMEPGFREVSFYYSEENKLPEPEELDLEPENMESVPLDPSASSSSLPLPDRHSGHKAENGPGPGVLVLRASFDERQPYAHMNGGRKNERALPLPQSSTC
Description: as §1

| SMILES | IC50 [1] [nM] | IC50 [2] [nM] | IC50 [3] [nM] |
| --- | --- | --- | --- |
| COc1cc(N2CCC(N3CCN(C)CC3)CC2)c(C)cc1Nc1ncc(Br)c(Nc2ccc3nc(C4CC4)ccc3c2P(C)(C)=O)n1 [US20240352053, Compound Formula I] | 0.3 |  |  |
| CCc1cc(Nc2ncc(Br)c(Nc3ccc4ncccc4c3P(C)(C)=O)n2)c(OC)cc1N1CCC(N2CCN(C)CC2)CC1 [US20240352053, Compound Control Example 1] | 0.2 | 5.1 | 9.5 |
